For one experiment, the system named is MDA-MB-231. As to the kind of experiment: Cell viability MTS assay. The class given is cell-based, human. The protocol:
(§1) Cell viability was determined by measuring the activity of dehydrogenase enzymes in metabolically active cells using a tetrazolium compound, MTS. The assay was performed as described in Promega Technical Bulletin No. 169 (CellTiter 96 Aqueous Non-Radioactive Cell Proliferation Assay). Thirteen human cancer cell lines were assayed (see, e.g., Table 1). Cells were maintained at 37° C., 5% CO2. Adherent cells were maintained DMEM media (4.5 g/L glucose) supplemented with 15% heat-inactivated FBS, 10 mM L-glutamine, and 10 mM Hepes pH 7.5. Suspension cells were maintained in RPMI 1640 media, supplemented with 10% heat-inactivated FBS and 10 mM Hepes pH 7.5. Briefly, cells were seeded in 96-well plates as set forth in Table 1 and incubated for 16-24 hours. Candidate compounds were serially diluted in DMSO, further diluted in cell culture media, and then added to cells (final DMSO concentration of 0.33%). Cells were incubated in the presence of candidate compound for 72 hours. MTS stock solution (MTS 2 gm/L, PMS […] in PBS) was added to the cells (final concentration MTS […] and PMS 7.67 mg/L) and incubated for 4 hours. SDS was added to a final concentration of 1.4% and absorbance at 490 nm was measured within two hours using a platereader. The IC50 was defined as the concentration of compound that results in a 50% reduction in the number of viable cells as compwered to control wells treated with DMSO only (0.33%) and was calculated using non-linear regression analyswas. IC50 values were given in Table 2 for the compounds listed.
A general note: Tetrazolium dyes change colour on reduction, which living cells bring about.

The subject of a further experiment is HT29. As to the kind of experiment: Cell viability MTS assay. The class given is cell-based, human. The protocol: as §1
The mark [1] stands for this setting: Homo sapiens, MDA-MB-231, 72 hours with compound.
The mark [2] stands for this setting: Homo sapiens, HT-29, 72 hours with compound.

From patent publication US7713969B2, “Compositions and methods for treatment of cancer” (ArQule, Inc., priority 2005, dated 2010) come the findings set out here.

What is called IC50 is the concentration that inhibits the measured activity by half.

Take `COc1ccc(OC)c(C2=C(c3cn4c5c(cccc35)CCC4)C(=O)NC2=O)c1` [Example 17, 3-(5,6-Dihydro-4H-pyrrolo[3,2,1-ij]quinolin-1-yl)-4(2,5-dimethoxy-phenyl)-pyrrole-2,5-dione]: the IC50 in the experiment on MDA-MB-231 (setting [1]) and with HT29 (setting [2]) was more than 100 µM in each case.

On to “3-(4-Benzoyloxyphenyl)-4-(5,6-dihydro-4H-pyrrolo[3,2,1-ij]quinolin-1-yl)-pyrrole-2,5-dione [Example 29]”, for which the IC50 in the experiment with MDA-MB-231 (72 hours with compound) and in the experiment with HT29 (72 hours with compound) was more than 100 µM in each case.

In the case of `O=C1NC(=O)C(c2cn3c4c(cccc24)CCC3)=C1c1cccc(Cl)c1` [Example 15, 3-(5,6-Dihydro-4H-pyrrolo[3,2,1-ij]quinolin-1-yl)-4-(3-chloro-phenyl)-pyrrole-2,5-dione], the IC50 turned out to be 43.6 µM with MDA-MB-231 (setting [1]) and 75.8 µM in the experiment with HT29 (setting [2]).

With `O=C1NC(=O)C(c2cn3c4c(cccc24)CCC3)=C1c1ccccc1C(F)(F)F` [Example 6, 3-(5,6-dihydro-4H-pyrrolo[3,2,1-ij]quinolin-1-yl)-4(2-trifluoromethyl-phenyl)-pyrrole-2,5-dione], the IC50 in the experiment with MDA-MB-231 (setting [1]) turned out to be 61.2 µM; in the experiment with HT29 (setting [2]) it was 62.7 µM.

In the case of `O=C1NC(=O)C(c2cn3c4c(cccc24)CCC3)=C1c1ccc(F)cc1Cl` [Example 18, 3-(5,6-Dihydro-4H-pyrrolo[3,2,1-ij]quinolin-1-yl)-4-(2-chloro-4-fluoro-phenyl)-pyrrole-2,5-dione], the IC50 in the experiment with MDA-MB-231 (setting [1]) and with HT29 (setting [2]) was more than 100 µM throughout.

Regarding `O=C1NC(=O)[C@@H](c2cn3c4c(cccc24)CCC3)[C@@H]1c1ccsc1` (racemic) [Example 45, (±)-Trans-3-(5,6-dihydro-4H-pyrrolo[3,2,1-ij]quinolin-1yl)-4-(thiophen-3-yl)pyrrolidine-2,5-dione], the IC50 with MDA-MB-231 (setting [1]) is 42.7 µM; in the experiment on HT29 (setting [2]), 27.6 µM.

In the case of “3-(5,6-dihydro-4H-pyrrolo[3,2,1-ij]quinolin-1-yl)-4-(4-fluorophenyl)-1H-pyrrole-2,5-dione [Example 67]”, in the experiment with HT29 (72 hours with compound), the IC50 is 53.1 µM.

As for “(±)-Trans-3-(5,6-dihydro-4H-pyrrolo[3,2,1-ij]quinolin-1-yl)-4-(4-fluorophenyl)pyrrolidine-2,5-dione [Example 70]”, the IC50 in the experiment on HT29 (72 hours with compound) was 26.2 µM.

For `O=C1NC(=O)[C@@H](c2cn3c4c(cccc24)CCC3)[C@@H]1c1ccc(OCc2ccccc2)cc1` (racemic) [Example 71, (±)-Trans-3-[4-(benzyloxy)phenyl]-4-(5,6-dihydro-4H-pyrrolo[3,2,1-ij]quinolin-1-yl)pyrrolidine-2,5-dione], the IC50 was determined as 97.5 µM in the experiment on MDA-MB-231 (setting [1]) and 48.7 µM in the experiment with HT29 (setting [2]).

For `O=C1NC(=O)[C@@H](c2cn3c4c(cccc24)CCC3)[C@@H]1c1c(Cl)cccc1Cl` (racemic) [Example 41, (±)-Trans-3-(5,6-dihydro-4H-pyrrolo[3,2,1-ij]quinolin-1yl)-4-(2,6-dichlorophenyl)pyrrolidine-2,5-dione], the IC50 in the experiment with MDA-MB-231 (setting [1]) turned out to be 7.63 µM; with HT29 (setting [2]), 4.65 µM.

Consider `O=C1[C@@H](c2c[nH]c3ccccc23)[C@H](c2cn3c4c(cccc24)CCC3)C(=O)N1COP(=O)(O)O` (racemic) [(±)-Phosphoric acid mono-[trans-3-(5,6-dihydro-4H-pyrrolo[3,2,1-ij]quinolin-1-yl)-4-(1H-indol-3-yl)-2,5-dioxo-pyrrolidin-1-ylmethyl]ester], for which the figures for the concentration for half-maximal inhibition (IC50) with MDA-MB-231 (setting [1]) and in the experiment on HT29 (setting [2]) were 5.89 µM and 4.45 µM, respectively.

For the compound `COc1ccc(-c2ccc3[nH]cc([C@@H]4C(=O)NC(=O)[C@H]4c4cn5c6c(cccc46)CCC5)c3c2)cc1` (racemic) [Example 38, (±)-Trans-3-(5,6-dihydro-4H-pyrrolo[3,2,1-ij]quinolin-1yl)-4-(5-(4-methoxyphenyl)-1H-indol-3-yl)pyrrolidine-2,5-dione], the IC50 is 13.1 µM with MDA-MB-231 (setting [1]) and 10.6 µM in the experiment on HT29 (setting [2]).

In the case of `O=C1NC(=O)C(c2cn3c4c(cccc24)CCC3)=C1c1cccc(Oc2ccccc2)c1` [Example 14, 3-(5,6-Dihydro-4H-pyrrolo[3,2,1-ij]quinolin-1-yl)-4-(3-phenoxy-phenyl)-pyrrole-2,5-dione], the figures for the IC50 in the experiment on MDA-MB-231 (setting [1]) and in the experiment on HT29 (setting [2]) were 98.2 µM and 71.6 µM, respectively.

`O=C1NC(=O)[C@@H](c2cn3c4c(cccc24)CN(C(=O)OCc2ccccc2)CC3)[C@@H]1c1c[nH]c2ccccc12` (racemic) [Example 74, (±)-Trans-7-[4-(1H-indol-3-yl)-2,5-dioxo-pyrrolidin-3-yl]-3,4-dihydro-1H-[1,4]diazepino[6,7,1-hi]indole-2-carboxylic acid benzyl ester]: the IC50 in the experiment on MDA-MB-231 (setting [1]) is more than 100 µM; in the experiment with HT29 (setting [2]) it was 90.7 µM.

As for `O=C1[C@@H](c2c[nH]c3ccccc23)[C@H](c2cn3c4c(cccc24)CCC3)C(=O)N1COP(=O)(OCc1ccccc1)OCc1ccccc1` (relative stereo) [phosphoric acid dibenzyl ester trans-3-(5,6-dihydro-4H-pyrrolo[3,2,1-ij]quinolin-1-yl)-4-(1H-indol-3-yl)-2,5-dioxo-pyrrolidin-1-ylmethyl ester], the IC50 with MDA-MB-231 (setting [1]) is more than 100 µM; in the experiment with HT29 (setting [2]) it was 22.6 µM.

In the case of `O=C1NC(=O)[C@@H](c2cn3c4c(cccc24)CCC3)[C@@H]1c1ccc(Cl)cc1` (racemic) [Example 43, (±)-Trans-3-(5,6-dihydro-4H-pyrrolo[3,2,1-ij]quinolin-1yl)-4-(4-chlorophenyl)pyrrolidine-2,5-dione], the IC50 with MDA-MB-231 (setting [1]) came to 54.5 µM; in the experiment with HT29 (setting [2]), 48.7 µM.

In the case of `O=C1NC(=O)C(c2cn3c4c(cccc24)CCC3)=C1c1ccc(F)cc1` [Example 67, 3-(5,6-dihydro-4H-pyrrolo[3,2,1-ij]quinolin-1-yl)-4-(4-fluorophenyl)-1H-pyrrole-2,5-dione], in the experiment on MDA-MB-231 (setting [1]), the IC50 came out at 57 µM.

Take `O=C1NC(=O)C(c2cn3c4c(cccc24)CCC3)=C1c1cccnc1` [Example 23, 3-(5,6-Dihydro-4H-pyrrolo[3,2,1-ij]quinolin-1-yl)-4-pyridine-3-yl-pyrrole-2,5-dione]: the IC50 in the experiment with MDA-MB-231 (setting [1]) was 28.7 µM; in the experiment with HT29 (setting [2]) it was 76.8 µM.

With `O=C1NC(=O)[C@@H](c2cn3c4c(cccc24)CCC3)[C@@H]1c1ccccc1` (racemic) [Example 49, (±)-Trans-3-(5,6-dihydro-4H-pyrrolo[3,2,1-ij]quinolin-1yl)-4-phenyl-pyrrolidine-2,5-dione], the IC50 with HT29 (setting [2]) amounted to 14.6 µM.

With `O=C1NC(=O)C(n2ccc3ccccc32)=C1c1cn2c3c(cccc13)CCC2` [Example 22, 3-(5,6-Dihydro-4H-pyrrolo[3,2,1-ij]quinolin-1-yl)-4-indol-1-yl-pyrrole-2,5-dione], the IC50 in the experiment on MDA-MB-231 (setting [1]) was 59.4 µM; in the experiment on HT29 (setting [2]), more than 100 µM.

As to `O=C1NC(=O)C(c2cn3c4c(cccc24)CCC3)=C1c1ccccc1` [Example 12, 3-(5,6-Dihydro-4H-pyrrolo[3,2,1-ij]quinolin-1-yl)-4-phenyl-pyrrole-2,5-dione], the IC50 was 81.6 µM in the experiment on MDA-MB-231 (setting [1]) and 66.5 µM with HT29 (setting [2]).

Take `Cc1cccc(-c2ccc3[nH]cc([C@@H]4C(=O)NC(=O)[C@H]4c4cn5c6c(cccc46)CCC5)c3c2)c1` (racemic) [Example 39, (±)-Trans-3-(5,6-dihydro-4H-pyrrolo[3,2,1-ij]quinolin-1yl)-4-(5-(3-methylphenyl)-1H-indol-3-yl)pyrrolidine-2,5-dione]: the IC50 with HT29 (setting [2]) was 10.5 µM.

Consider `O=C1NC(=O)[C@@H](c2cn3c4c(cccc24)CCC3)[C@@H]1c1ccc(Cl)cc1Cl` (racemic) [Example 48, (±)-Trans-3-(5,6-dihydro-4H-pyrrolo[3,2,1-ij]quinolin-1yl)-4-(2,4-dichlorophenyl)pyrrolidine-2,5-dione], for which the figures for the IC50 in the experiment with MDA-MB-231 (setting [1]) and with HT29 (setting [2]) were 14.8 µM and 8.39 µM, respectively.

Turning to `O=C1NC(=O)[C@@H](c2cn3c4c(cccc24)CCC3)[C@@H]1c1ccc(Br)cc1` (racemic) [Example 42, (±)-Trans-3-(5,6-dihydro-4H-pyrrolo[3,2,1-ij]quinolin-1yl)-4-(4-bromophenyl)pyrrolidine-2,5-dione], the IC50 in the experiment with MDA-MB-231 (setting [1]) turned out to be 49.6 µM; in the experiment on HT29 (setting [2]) it was 44.1 µM.

Take `NCC(=O)OCN1C(=O)[C@@H](c2c[nH]c3ccccc23)[C@H](c2cn3c4c(cccc24)CCC3)C1=O` (racemic) [Example 58, (±)-trans-2-Amino-acetic acid-3-(5,6-dihydro-4H-pyrrolo[3,2,1-ij]quinolin-1-yl)-4-(1H-indol-3-yl)-2,5-dioxo-pyrrolidin-1-yl methyl ester]: the IC50 with MDA-MB-231 (72 hours with compound) worked out at 3.45 µM; in the experiment on HT29 (72 hours with compound) it was 2.77 µM.

Regarding `O=C1NC(=O)C(c2cn3c4c(cccc24)CCC3)=C1c1ccccn1` [Example 9, 3-(5,6-Dihydro-4H-pyrrolo[3,2,1-ij]quinolin-1-yl)-4-pyridin-2-yl-pyrrole-2,5-dione], the IC50 with MDA-MB-231 (setting [1]) and in the experiment with HT29 (setting [2]) was more than 100 µM throughout.

As for `O=C1NC(=O)[C@@H](c2cn3c4c(cccc24)CCC3)[C@@H]1c1ccc(F)cc1Cl` (racemic) [Example 40, (±)-Trans-3-(5,6-dihydro-4H-pyrrolo[3,2,1-ij]quinolin-1yl)-4-(2-chloro-4-fluorophenyl)pyrrolidine-2,5-dione], in the experiment on HT29 (setting [2]), the IC50 came to 10.5 µM.

Take `O=C1NC(=O)[C@@H](c2cn3c4c(cccc24)CCC3)[C@@H]1c1ccc(F)cc1` (racemic) [Example 70, (±)-Trans-3-(5,6-dihydro-4H-pyrrolo[3,2,1-ij]quinolin-1-yl)-4-(4-fluorophenyl)pyrrolidine-2,5-dione]: the IC50 in the experiment with MDA-MB-231 (setting [1]) came to 49.2 µM.
